From ChEMBL document CHEMBL4311939, “Design and evaluation of novel tetracyclic benzofurans as palm site allosteric inhibitors of HCV NS5B polymerase” (Bioorg Med Chem Lett, 2019)
≈ marks a conversion by molar mass, not a printed value. Values belong to the compound of their own block, whether it stands above or below them.

Tests used:
[1] = Apparent permeability in dog MDCK cells; assay type: ADME, cell-based, Canis lupus familiaris
[2] = AUC in rat at 10 mg/kg, po using spray dry sample; assay type: ADME, organism-based; settings: in vivo
[3] = AUC in rat at 100 mg/kg, po using spray dry sample; assay type: ADME, organism-based; settings: in vivo
[4] = AUC in rat at 650 mg/kg, po using spray dry sample; assay type: ADME, organism-based; settings: in vivo
[5] = Cmax in rat at 10 mg/kg, po using spray dry sample; assay type: ADME, organism-based; set-up: dose 10 mg/kg, route oral; settings: in vivo
[6] = Cmax in rat at 100 mg/kg, po using spray dry sample; assay type: ADME, organism-based; set-up: dose 100 mg/kg, route oral; settings: in vivo
[7] = Cmax in rat at 650 mg/kg, po using spray dry sample; assay type: ADME, organism-based; set-up: dose 650 mg/kg, route oral; settings: in vivo
Cytochrome P450 3A4 = Cytochrome P450 3A4 (Homo sapiens, UniProt P08684); test: Inhibition of CYP3A4 (unknown origin); assay type: ADME
[8] = biological target: Voltage-gated inwardly rectifying potassium channel KCNH2 (Homo sapiens, UniProt Q12809); test: Inhibition of human ERG by patch clamp assay
[9] = biological target: T1, Nuclear receptor subfamily 1 group I member 2 (Homo sapiens, UniProt O75469); test: Transactivation of PXR (unknown origin); assay type: ADME
T1 sequence (O75469 whole entry): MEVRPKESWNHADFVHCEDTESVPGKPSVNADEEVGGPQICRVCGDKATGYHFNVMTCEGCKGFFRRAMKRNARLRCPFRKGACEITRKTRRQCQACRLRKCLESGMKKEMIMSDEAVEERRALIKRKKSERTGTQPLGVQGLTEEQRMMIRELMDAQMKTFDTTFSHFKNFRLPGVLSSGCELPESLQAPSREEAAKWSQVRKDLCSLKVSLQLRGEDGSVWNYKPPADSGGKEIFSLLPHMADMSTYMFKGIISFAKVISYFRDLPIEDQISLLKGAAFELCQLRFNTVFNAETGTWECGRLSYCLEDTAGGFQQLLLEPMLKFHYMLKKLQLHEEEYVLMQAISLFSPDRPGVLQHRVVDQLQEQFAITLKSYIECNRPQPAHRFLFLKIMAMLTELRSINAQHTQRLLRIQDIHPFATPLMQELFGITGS

[10] = biological target: Voltage-dependent L-type calcium channel subunit alpha-1C (Homo sapiens, UniProt Q13936); test: Inhibition of Cav1.2 (unknown origin)
[11] = biological target: Sodium channel protein type 5 subunit alpha (Homo sapiens, UniProt Q14524); test: Inhibition of Nav1.5 (unknown origin)
[12] = Solubility of the compound in FaSSIF using crystalline sample; assay type: physicochemical
[13] = Clearance in rat at 1 mg/kg, iv; assay type: ADME, organism-based; settings: in vivo
[14] = Half life in rat at 1 mg/kg, iv; assay type: ADME, organism-based; settings: in vivo
[15] = Cmax in rat at 5 mg/kg, po; assay type: ADME, organism-based; set-up: dose 5 mg/kg, route oral; settings: in vivo
[16] = AUC in rat at 5 mg/kg, po; assay type: ADME, organism-based; settings: in vivo
[17] = Oral bioavailability in rat at 5 mg/kg; assay type: ADME, organism-based; settings: in vivo
[18] = Drug concentration in rat plasma at 5 mg/kg, po after 24 hrs; assay type: ADME, organism-based
[19] = Clearance in dog at 0.5 mg/kg, iv; assay type: ADME, organism-based, Canis lupus familiaris; settings: in vivo
[20] = Half life in dog at 0.5 mg/kg, iv; assay type: ADME, organism-based, Canis lupus familiaris; settings: in vivo
[21] = Cmax in dog at 2 mg/kg, po; assay type: ADME, organism-based, Canis lupus familiaris; set-up: dose 2 mg/kg, route oral; settings: in vivo
[22] = AUC in dog at 2 mg/kg, po; assay type: ADME, organism-based, Canis lupus familiaris; settings: in vivo
[23] = Oral bioavailability in dog at 2 mg/kg; assay type: ADME, organism-based, Canis lupus familiaris; settings: in vivo
[24] = Drug concentration in dog plasma at 2 mg/kg, po after 24 hrs; assay type: ADME, organism-based, Canis lupus familiaris
[25] = Clearance in monkey at 1 mg/kg, iv; assay type: ADME, organism-based, Macaca mulatta; settings: rhesus monkey, in vivo
[26] = Half life in monkey at 1 mg/kg, iv; assay type: ADME, organism-based, Macaca mulatta; settings: rhesus monkey, in vivo
[27] = Cmax in monkey at 3 mg/kg, po; assay type: ADME, organism-based, Macaca mulatta; set-up: dose 3 mg/kg, route oral; settings: rhesus monkey, in vivo
[28] = AUC in monkey at 3 mg/kg, po; assay type: ADME, organism-based, Macaca mulatta; settings: rhesus monkey, in vivo
[29] = Oral bioavailability in monkey at 3 mg/kg; assay type: ADME, organism-based, Macaca mulatta; settings: rhesus monkey, in vivo
[30] = Drug concentration in monkey plasma at 3 mg/kg, po after 24 hrs; assay type: ADME, organism-based, Macaca mulatta; settings: rhesus monkey
[31] = Tmax in rat at 5 mg/kg, po; assay type: ADME, organism-based; settings: in vivo
[32] = Drug metabolism in solvent assessed as oxidation by measuring cpd 1 formation under air exposure
[33] = AUC in rat at 100 mg/kg, po using conventional sample; assay type: ADME, organism-based; settings: in vivo
[34] = AUC in rat at 300 mg/kg, po using spray dry sample; assay type: ADME, organism-based; settings: in vivo
[35] = Cmax in rat at 300 mg/kg, po using spray dry sample; assay type: ADME, organism-based; set-up: dose 300 mg/kg, route oral; settings: in vivo

Sodium channel protein type 5 subunit alpha, sequence (Q14524 whole entry): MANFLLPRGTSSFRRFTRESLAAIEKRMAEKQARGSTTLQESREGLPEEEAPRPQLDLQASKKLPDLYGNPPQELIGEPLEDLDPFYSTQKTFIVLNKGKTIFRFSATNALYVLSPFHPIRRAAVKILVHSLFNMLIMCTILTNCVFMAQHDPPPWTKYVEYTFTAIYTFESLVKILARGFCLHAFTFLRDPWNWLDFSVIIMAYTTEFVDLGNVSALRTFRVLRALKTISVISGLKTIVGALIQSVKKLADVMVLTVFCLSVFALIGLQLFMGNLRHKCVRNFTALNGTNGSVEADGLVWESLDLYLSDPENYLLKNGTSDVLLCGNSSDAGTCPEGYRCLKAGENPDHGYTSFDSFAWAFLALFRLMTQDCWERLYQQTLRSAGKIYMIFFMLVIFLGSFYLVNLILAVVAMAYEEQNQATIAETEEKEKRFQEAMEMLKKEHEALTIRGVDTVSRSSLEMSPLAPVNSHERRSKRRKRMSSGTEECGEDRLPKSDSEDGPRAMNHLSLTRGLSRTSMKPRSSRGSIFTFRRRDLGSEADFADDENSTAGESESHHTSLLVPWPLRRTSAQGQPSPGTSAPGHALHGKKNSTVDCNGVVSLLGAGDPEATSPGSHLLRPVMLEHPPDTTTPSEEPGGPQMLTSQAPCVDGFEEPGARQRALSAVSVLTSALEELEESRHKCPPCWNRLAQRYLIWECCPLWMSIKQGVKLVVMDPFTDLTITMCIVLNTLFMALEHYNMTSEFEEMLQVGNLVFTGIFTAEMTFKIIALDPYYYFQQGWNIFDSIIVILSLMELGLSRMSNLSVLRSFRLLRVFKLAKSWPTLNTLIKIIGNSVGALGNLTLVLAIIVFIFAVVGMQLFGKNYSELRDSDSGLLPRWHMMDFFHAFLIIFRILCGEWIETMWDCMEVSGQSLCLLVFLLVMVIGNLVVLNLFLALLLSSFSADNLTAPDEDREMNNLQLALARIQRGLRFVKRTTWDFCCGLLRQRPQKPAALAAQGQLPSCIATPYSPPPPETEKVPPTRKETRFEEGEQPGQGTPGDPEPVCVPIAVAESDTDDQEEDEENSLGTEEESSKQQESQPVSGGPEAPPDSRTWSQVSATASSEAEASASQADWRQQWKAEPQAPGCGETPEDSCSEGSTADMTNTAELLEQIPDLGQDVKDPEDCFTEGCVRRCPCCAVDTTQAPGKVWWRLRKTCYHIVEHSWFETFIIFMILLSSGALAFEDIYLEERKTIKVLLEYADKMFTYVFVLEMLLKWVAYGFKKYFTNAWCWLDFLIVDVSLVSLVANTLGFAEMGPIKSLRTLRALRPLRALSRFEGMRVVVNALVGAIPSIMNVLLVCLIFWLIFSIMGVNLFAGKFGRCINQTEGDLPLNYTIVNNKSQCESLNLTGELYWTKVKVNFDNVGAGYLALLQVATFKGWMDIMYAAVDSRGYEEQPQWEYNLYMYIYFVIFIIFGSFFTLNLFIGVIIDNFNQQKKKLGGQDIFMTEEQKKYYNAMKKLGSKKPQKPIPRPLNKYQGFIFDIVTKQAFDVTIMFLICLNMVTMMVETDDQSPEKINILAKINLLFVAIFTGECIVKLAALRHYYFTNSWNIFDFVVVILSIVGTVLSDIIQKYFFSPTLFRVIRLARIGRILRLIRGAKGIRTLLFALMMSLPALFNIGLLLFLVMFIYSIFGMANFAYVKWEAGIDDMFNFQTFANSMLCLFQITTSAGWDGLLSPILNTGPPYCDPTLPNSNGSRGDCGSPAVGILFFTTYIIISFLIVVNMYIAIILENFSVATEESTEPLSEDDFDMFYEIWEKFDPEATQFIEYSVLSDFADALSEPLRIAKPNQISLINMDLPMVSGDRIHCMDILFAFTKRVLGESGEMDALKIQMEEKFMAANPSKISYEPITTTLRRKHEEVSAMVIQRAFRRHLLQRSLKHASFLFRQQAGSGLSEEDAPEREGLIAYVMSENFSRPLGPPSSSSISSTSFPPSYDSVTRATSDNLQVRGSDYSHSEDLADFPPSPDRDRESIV
Voltage-dependent L-type calcium channel subunit alpha-1C, sequence (Q13936 whole entry): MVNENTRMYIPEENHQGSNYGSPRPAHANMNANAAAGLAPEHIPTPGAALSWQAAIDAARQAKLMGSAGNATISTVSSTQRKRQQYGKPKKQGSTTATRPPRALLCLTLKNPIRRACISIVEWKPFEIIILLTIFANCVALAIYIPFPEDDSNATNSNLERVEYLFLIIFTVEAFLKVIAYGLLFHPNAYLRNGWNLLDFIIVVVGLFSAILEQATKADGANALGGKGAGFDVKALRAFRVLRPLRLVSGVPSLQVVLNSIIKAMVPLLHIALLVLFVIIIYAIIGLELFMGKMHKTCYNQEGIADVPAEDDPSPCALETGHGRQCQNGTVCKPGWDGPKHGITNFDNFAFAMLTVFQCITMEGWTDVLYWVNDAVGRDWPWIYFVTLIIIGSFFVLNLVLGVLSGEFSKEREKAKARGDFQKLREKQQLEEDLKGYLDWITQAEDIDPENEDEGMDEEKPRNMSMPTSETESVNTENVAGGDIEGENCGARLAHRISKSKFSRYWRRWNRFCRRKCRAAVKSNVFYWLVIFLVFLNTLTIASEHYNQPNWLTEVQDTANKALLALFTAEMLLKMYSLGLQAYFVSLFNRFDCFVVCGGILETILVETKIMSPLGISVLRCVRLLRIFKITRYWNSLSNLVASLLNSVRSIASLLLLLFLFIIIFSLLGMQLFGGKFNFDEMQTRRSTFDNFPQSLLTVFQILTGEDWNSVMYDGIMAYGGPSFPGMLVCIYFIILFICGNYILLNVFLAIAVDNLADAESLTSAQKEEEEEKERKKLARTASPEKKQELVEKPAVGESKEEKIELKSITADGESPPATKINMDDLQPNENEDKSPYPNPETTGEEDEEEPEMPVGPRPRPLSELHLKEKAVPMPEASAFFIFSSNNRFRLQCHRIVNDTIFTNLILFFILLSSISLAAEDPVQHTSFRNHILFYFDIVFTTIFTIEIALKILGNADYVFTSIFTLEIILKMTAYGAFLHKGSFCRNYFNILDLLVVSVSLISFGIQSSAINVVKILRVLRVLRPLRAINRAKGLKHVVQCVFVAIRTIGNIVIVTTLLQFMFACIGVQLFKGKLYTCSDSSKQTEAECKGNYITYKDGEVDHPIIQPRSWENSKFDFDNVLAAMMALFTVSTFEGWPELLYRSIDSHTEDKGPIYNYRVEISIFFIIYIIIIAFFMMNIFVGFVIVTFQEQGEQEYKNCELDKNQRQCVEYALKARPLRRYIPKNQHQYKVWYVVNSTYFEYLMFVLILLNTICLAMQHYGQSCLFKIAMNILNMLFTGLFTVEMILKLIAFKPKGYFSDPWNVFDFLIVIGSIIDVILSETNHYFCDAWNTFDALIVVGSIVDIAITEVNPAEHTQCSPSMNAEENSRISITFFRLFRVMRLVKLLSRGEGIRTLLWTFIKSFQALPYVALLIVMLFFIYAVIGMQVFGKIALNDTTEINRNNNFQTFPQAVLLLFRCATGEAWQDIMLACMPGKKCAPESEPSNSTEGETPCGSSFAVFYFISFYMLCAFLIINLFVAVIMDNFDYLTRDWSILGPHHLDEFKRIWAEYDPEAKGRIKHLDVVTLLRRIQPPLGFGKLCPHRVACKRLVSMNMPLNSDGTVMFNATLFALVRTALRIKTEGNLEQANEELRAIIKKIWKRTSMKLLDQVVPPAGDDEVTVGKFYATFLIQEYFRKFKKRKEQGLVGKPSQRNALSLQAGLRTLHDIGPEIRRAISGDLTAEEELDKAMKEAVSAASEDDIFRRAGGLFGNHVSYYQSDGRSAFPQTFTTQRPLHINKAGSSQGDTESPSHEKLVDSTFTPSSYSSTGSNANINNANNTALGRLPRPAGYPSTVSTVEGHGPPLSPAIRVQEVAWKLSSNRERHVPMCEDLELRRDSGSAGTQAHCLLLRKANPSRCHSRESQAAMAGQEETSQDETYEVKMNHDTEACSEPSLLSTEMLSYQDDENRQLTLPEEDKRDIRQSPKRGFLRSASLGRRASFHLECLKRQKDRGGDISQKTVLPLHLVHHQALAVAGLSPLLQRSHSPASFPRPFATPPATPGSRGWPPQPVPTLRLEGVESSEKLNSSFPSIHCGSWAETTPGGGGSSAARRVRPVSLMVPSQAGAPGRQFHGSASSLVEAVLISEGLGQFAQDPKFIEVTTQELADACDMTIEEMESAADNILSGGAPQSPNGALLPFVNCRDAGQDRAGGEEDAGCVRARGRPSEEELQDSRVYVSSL
Cytochrome P450 3A4, sequence (P08684 whole entry): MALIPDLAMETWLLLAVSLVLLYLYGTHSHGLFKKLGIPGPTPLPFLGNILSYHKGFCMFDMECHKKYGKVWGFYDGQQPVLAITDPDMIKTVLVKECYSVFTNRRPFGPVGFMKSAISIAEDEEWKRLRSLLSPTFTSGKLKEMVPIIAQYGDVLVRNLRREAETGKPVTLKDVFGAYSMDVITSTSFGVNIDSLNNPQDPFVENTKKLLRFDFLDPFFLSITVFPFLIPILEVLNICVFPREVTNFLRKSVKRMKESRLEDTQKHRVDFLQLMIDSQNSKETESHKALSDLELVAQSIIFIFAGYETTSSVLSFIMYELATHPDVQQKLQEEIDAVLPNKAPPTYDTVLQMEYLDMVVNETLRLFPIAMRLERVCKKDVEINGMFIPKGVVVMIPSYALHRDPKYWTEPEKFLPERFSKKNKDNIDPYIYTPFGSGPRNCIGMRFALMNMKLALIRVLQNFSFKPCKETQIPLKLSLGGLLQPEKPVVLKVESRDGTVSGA

Structure (SMILES): CNC(=O)c1c(-c2ccc(F)cc2)oc2cc(N(C)S(C)(=O)=O)c(-c3ccc4c(n3)-c3cc5c(F)cccc5n3CC4)cc12
IC50 (Cytochrome P450 3A4): > 50 µM | IC50 [8]: > 30 µM | EC50 [9]: > 30 µM | IC50 [10]: 18 µM | IC50 [11]: > 30 µM | solubility thermodynamic [12]: 4.7 µg/mL (≈ 7.67 µM) | Papp [1]: 14.2 ×10⁻⁶ cm/s | clearance [13]: 2.3 mL/min/kg | half-life [14]: 720 min | Cmax [15]: 950 nM | AUC [16]: 8.8 µM·h | bioavailability [17]: 18% | concentration at 24 h [18]: 69 nM | clearance [19]: 2.9 mL/min/kg | half-life [20]: 780 min | Cmax [21]: 1300 nM | AUC [22]: 9.2 µM·h | bioavailability [23]: 54% | concentration at 24 h [24]: 76 nM | clearance [25]: 11 mL/min/kg | half-life [26]: 354 min | Cmax [27]: 320 nM | AUC [28]: 1.7 µM·h | bioavailability [29]: 22% | concentration at 24 h [30]: 6.3 nM | AUC [2]: 37 µM·h | AUC [3]: 100 µM·h | AUC [4]: 181 µM·h | Cmax [5]: 4300 nM | Cmax [6]: 8.2 µM | Cmax [7]: 11 µM | Tmax [31]: 4 h

Structure (SMILES): CNC(=O)c1c(-c2ccc(F)cc2)oc2cc(N(C)S(C)(=O)=O)c(-c3ccc4c(n3)-c3cc5c(F)cccc5n3CN4)cc12
IC50 (Cytochrome P450 3A4): > 50 µM | IC50 [8]: > 30 µM | EC50 [9]: > 30 µM | IC50 [10]: > 30 µM | IC50 [11]: > 30 µM | Papp [1]: 8.9 ×10⁻⁶ cm/s | clearance [13]: 16 mL/min/kg | half-life [14]: 228 min | Cmax [15]: 350 nM | AUC [16]: 1.4 µM·h | bioavailability [17]: 16% | concentration at 24 h [18]: 2.2 nM | clearance [19]: 7.9 mL/min/kg | half-life [20]: 240 min | Cmax [21]: 410 nM | AUC [22]: 2.3 µM·h | bioavailability [23]: 30% | concentration at 24 h [24]: 11 nM | clearance [25]: 7.7 mL/min/kg | half-life [26]: 234 min | Cmax [27]: 130 nM | AUC [28]: 1 µM·h | bioavailability [29]: 9.3% | concentration at 24 h [30]: 4 nM | Drug metabolism [32]: Metabolite detected

Structure (SMILES): CNC(=O)c1c(-c2ccc(F)cc2)oc2cc(N(C)S(C)(=O)=O)c(-c3ccc4ccn5c6cccc(F)c6cc5c4n3)cc12
IC50 (Cytochrome P450 3A4): > 50 µM | IC50 [8]: > 30 µM | EC50 [9]: > 30 µM | IC50 [10]: 18 µM | IC50 [11]: > 30 µM | solubility thermodynamic [12]: 2.9 µg/mL (≈ 4.75 µM) | Papp [1]: < 1.9 ×10⁻⁶ cm/s | clearance [13]: 4.2 mL/min/kg | half-life [14]: 960 min | Cmax [15]: 450 nM | AUC [16]: 7.9 µM·h | bioavailability [17]: 26% | concentration at 24 h [18]: 114 nM | clearance [19]: 2.6 mL/min/kg | half-life [20]: 1320 min | Cmax [21]: 1000 nM | AUC [22]: 6.3 µM·h | bioavailability [23]: 43% | concentration at 24 h [24]: 140 nM | clearance [25]: 5.6 mL/min/kg | half-life [26]: 396 min | Cmax [27]: 370 nM | AUC [28]: 3.5 µM·h | bioavailability [29]: 24% | concentration at 24 h [30]: 31 nM

Structure (SMILES): CNC(=O)c1c(-c2ccc(F)cc2)oc2cc(N(C)S(C)(=O)=O)c(-c3ccc4ncn5c6cccc(F)c6cc5c4n3)cc12
IC50 (Cytochrome P450 3A4): > 50 µM | IC50 [8]: > 30 µM | EC50 [9]: > 30 µM | IC50 [10]: 22 µM | IC50 [11]: > 30 µM | solubility thermodynamic [12]: 1.02 µg/mL (≈ 1.67 µM) | Papp [1]: 10.2 ×10⁻⁶ cm/s | clearance [13]: 8.5 mL/min/kg | half-life [14]: 504 min | Cmax [15]: 580 nM | AUC [16]: 5.2 µM·h | bioavailability [17]: 36% | concentration at 24 h [18]: 110 nM | clearance [19]: 3.2 mL/min/kg | half-life [20]: 1020 min | Cmax [21]: 840 nM | AUC [22]: 9.4 µM·h | bioavailability [23]: 64% | concentration at 24 h [24]: 130 nM | clearance [25]: 4.7 mL/min/kg | half-life [26]: 366 min | Cmax [27]: 660 nM | AUC [28]: 3.4 µM·h | bioavailability [29]: 20% | concentration at 24 h [30]: 10 nM | AUC [33]: 0.67 µM·h | AUC [2]: 32 µM·h | AUC [3]: 136 µM·h | AUC [34]: 181 µM·h | Cmax [5]: 2700 nM | Cmax [6]: 8.5 µM | Cmax [35]: 5.6 µM

Structure (SMILES): CNC(=O)c1c(-c2ccc(F)cc2)oc2cc(N(C)S(C)(=O)=O)c(-c3cc4n(c(=O)c3)CCn3c-4cc4c(F)cccc43)cc12
clearance [13]: 17 mL/min/kg | half-life [14]: 258 min | Cmax [15]: 190 nM | AUC [16]: 0.078 µM·h | bioavailability [17]: 1% | Tmax [31]: 1 h

The next lines start with the values.

Papp [1]: 7.9 ×10⁻⁶ cm/s | AUC [2]: 16 µM·h | AUC [3]: 83 µM·h | AUC [4]: 226 µM·h | Cmax [5]: 1500 nM | Cmax [6]: 6.7 µM | Cmax [7]: 12 µM
Structure (SMILES): CNC(=O)c1c(-c2ccc(F)cc2)oc2cc(N(C)S(C)(=O)=O)c(-c3ccc4c(n3)-c3cc5c(F)cccc5n3CO4)cc12 [MK-8876]

clearance [13]: 5.2 mL/min/kg | half-life [14]: 576 min | Cmax [15]: 120 nM | AUC [16]: 1.1 µM·h | bioavailability [17]: 4% | concentration at 24 h [18]: 10 nM | Tmax [31]: 3 h
Structure (SMILES): CNC(=O)c1c(-c2ccc(F)cc2)oc2cc(N(C)S(C)(=O)=O)c(-c3ccc4c(n3)-c3cc5c(F)cccc5n3C4)cc12
